For one data set, the system named is 3′ UTR of the human DMPK gene. In words: Single-cut screening: indel editing efficiency by Sanger sequencing and ICE analysis in primary DM1 patient myoblasts. The format is cell-based. Particulars: single SluCas9 sgRNA RNP in primary DM1 patient myoblasts; Sanger sequencing and ICE analysis; vehicle-treated samples. Summed up:
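Indels were estimated by ICE from Sanger chromatograms of PCR amplicons covering the DMPK 3′ UTR wild-type allele, using only vehicle-treated samples; sgRNAs with R2<0.9 are flagged. Samples came from primary DM1 patient myoblasts (2 × 10^5) harvested 72 h after nucleofection with 30 pmol SluCas9 and 90 pmol single sgRNA RNP.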
As to “GACAATAAATACCGAGGAATGT (guide RNA; chemistry not fully specified) [SluD81]”, the Indel efficiency stood at 10%.

Substance “GACGCCCTGCTCTGGGGAGCGT (guide RNA; chemistry not fully specified) [SluD33]” had an Indel efficiency of 74%.

In turn, “GAGAGCAGCGCAAGTGAGGAGG (listed as DNA, chemistry not fully specified) [SluD48]” returned an Indel efficiency of 60%.

With “GAGGGCCTTTTATTCGCGAGGG (guide RNA; chemistry not fully specified) [SluD97]”, the Indel efficiency is given as 11%.

Turning to “GATAGGTGGGGGTGCGTGGAGG (guide RNA; chemistry not fully specified) [SluD21]”, the Indel efficiency is 36%.

Regarding “GATCACAGACCATTTCTTTCTT (guide RNA; chemistry not fully specified) [SluD01]”, the Indel efficiency was 0%.

As for “GATGGAGGGCCTTTTATTCGCG (guide RNA; chemistry not fully specified) [SluD98]”, the Indel efficiency amounted to 0%.

With “GCACTTTGCGAACCAACGATAG (guide RNA; chemistry not fully specified) [SluD28]”, the Indel efficiency amounted to 48%.

Substance “GCCCAGCTCCAGTCCTGTGATC (guide RNA; chemistry not fully specified) [SluU28]” gave an Indel efficiency of 17%.

“GCCCCAGCCGGCTCCGCCCGCT (guide RNA; chemistry not fully specified) [SluD55]” displayed an Indel efficiency of 41%.

As to “GCCCCCTAGCggccggggaggg (guide RNA; as printed in the source, key not given here) [SluU42]”, the Indel efficiency turned out to be 15%.

Staying with this data set, now noted: single-cut; SluCas9 RNP; vehicle-treated samples; 72 hrs post nucleofection; wild-type allele.
As for “GAGAGCAGCGCAAGTGAGGAGG (listed as DNA, chemistry not fully specified) [SluD48]”, the “indel efficiency (Sanger sequencing and ICE analysis)” value is given as “high editing IN4DEL efficiency”.

In a further data set the test system is CAG foci in primary DM1 patient myoblasts. In words: Single-cut screening: CAG foci staining. The format is cell-based, human. The following applies: single sgRNA, DNA-PKi treated. Summed up:
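Primary DM1 patient myoblasts were PFA-fixed and hybridized with […] (1 ng/μL, 15 min at 80° C) in 30% formamide/2×SSC, followed by anti-MBNL1 immunostaining and Hoechst counterstain. CAG RNA foci were quantified by high-content confocal imaging after single-cut SuCas9 sgRNA editing.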
For “GACAATAAATACCGAGGAATGT (guide RNA; chemistry not fully specified) [SluD81]”, the “% of CAG foci positive nuclei (DNA-PKi)” value was determined as 1.75%.

For “GACGCCCTGCTCTGGGGAGCGT (guide RNA; chemistry not fully specified) [SluD33]”, the “% of CAG foci positive nuclei (DNA-PKi)” value came to 1.76%.

Take “GAGAGCAGCGCAAGTGAGGAGG (listed as DNA, chemistry not fully specified) [SluD48]”: the “% of CAG foci positive nuclei (DNA-PKi)” value was determined as 2.91%.

Regarding “GAGGGCCTTTTATTCGCGAGGG (guide RNA; chemistry not fully specified) [SluD97]”, the “% of CAG foci positive nuclei (DNA-PKi)” value is 2.01%.

Take “GATAGGTGGGGGTGCGTGGAGG (guide RNA; chemistry not fully specified) [SluD21]”: the “% of CAG foci positive nuclei (DNA-PKi)” value is 1.77%.

In the case of “GATCACAGACCATTTCTTTCTT (guide RNA; chemistry not fully specified) [SluD01]”, the “% of CAG foci positive nuclei (DNA-PKi)” value was determined as 1.34%.

Regarding “GATGGAGGGCCTTTTATTCGCG (guide RNA; chemistry not fully specified) [SluD98]”, the “% of CAG foci positive nuclei (DNA-PKi)” value is recorded as 1.47%.

Consider “GCACTTTGCGAACCAACGATAG (guide RNA; chemistry not fully specified) [SluD28]”, for which the “% of CAG foci positive nuclei (DNA-PKi)” value turned out to be 1.29%.

Take “GCCCAGCTCCAGTCCTGTGATC (guide RNA; chemistry not fully specified) [SluU28]”: the “% of CAG foci positive nuclei (DNA-PKi)” value turned out to be 1.64%.

As to “GCCCCAGCCGGCTCCGCCCGCT (guide RNA; chemistry not fully specified) [SluD55]”, the “% of CAG foci positive nuclei (DNA-PKi)” value came to 2.92%.

Regarding “GCCCCCTAGCggccggggaggg (guide RNA; as printed in the source, key not given here) [SluU42]”, the “% of CAG foci positive nuclei (DNA-PKi)” value was determined as 1.62%.

Still in this data set, the particulars now being: single sgRNA, vehicle.
In the case of “GACAATAAATACCGAGGAATGT (guide RNA; chemistry not fully specified) [SluD81]”, the “% of CAG foci positive nuclei (Vehicle)” value is 1.54%.

As to “GACGCCCTGCTCTGGGGAGCGT (guide RNA; chemistry not fully specified) [SluD33]”, the “% of CAG foci positive nuclei (Vehicle)” value was determined as 4.78%.

As to “GAGAGCAGCGCAAGTGAGGAGG (listed as DNA, chemistry not fully specified) [SluD48]”, the “% of CAG foci positive nuclei (Vehicle)” value is given as 2.3%.

Take “GAGGGCCTTTTATTCGCGAGGG (guide RNA; chemistry not fully specified) [SluD97]”: the “% of CAG foci positive nuclei (Vehicle)” value was 1.19%.

For “GATAGGTGGGGGTGCGTGGAGG (guide RNA; chemistry not fully specified) [SluD21]”, the “% of CAG foci positive nuclei (Vehicle)” value turned out to be 1.95%.

Regarding “GATCACAGACCATTTCTTTCTT (guide RNA; chemistry not fully specified) [SluD01]”, the “% of CAG foci positive nuclei (Vehicle)” value was 0.79%.

Consider “GATGGAGGGCCTTTTATTCGCG (guide RNA; chemistry not fully specified) [SluD98]”, for which the “% of CAG foci positive nuclei (Vehicle)” value turned out to be 0.84%.

On to “GCACTTTGCGAACCAACGATAG (guide RNA; chemistry not fully specified) [SluD28]”, for which the “% of CAG foci positive nuclei (Vehicle)” value was determined as 1.23%.

On to “GCCCAGCTCCAGTCCTGTGATC (guide RNA; chemistry not fully specified) [SluU28]”, for which the “% of CAG foci positive nuclei (Vehicle)” value is given as 1.15%.

In the case of “GCCCCAGCCGGCTCCGCCCGCT (guide RNA; chemistry not fully specified) [SluD55]”, the “% of CAG foci positive nuclei (Vehicle)” value came out at 3.01%.

In the case of “GCCCCCTAGCggccggggaggg (guide RNA; as printed in the source, key not given here) [SluU42]”, the “% of CAG foci positive nuclei (Vehicle)” value is reported as 0.86%.

The subject of the next data set is CUG foci in primary DM1 patient myoblasts. In words: Single-cut screening: FISH staining of CUG RNA foci. The following applies: single sgRNA; primary DM1 patient myoblasts; DNA-PKi treated. The format is cell-based, human. Summed up: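 CD56-purified primary DM1 patient myoblasts nucleofected with SluCas9:sgRNA RNP (30:90 pmol, single-cut), then DMSO or 3 μM DNA-PK inhibitor for 48 h. At 72 h post-nucleofection, cells fixed and stained for CUG foci with Cy3-PNA(CAG)5 probe (1 ng/μL, 80 °C), co-stained for MBNL1 and Hoechst, imaged by high-content confocal microscopy.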
As to “GACAATAAATACCGAGGAATGT (guide RNA; chemistry not fully specified) [SluD81]”, the “% of CUG foci free nuclei (DNA-PKi)” value is on record as 28.66%.

As for “GACGCCCTGCTCTGGGGAGCGT (guide RNA; chemistry not fully specified) [SluD33]”, the “% of CUG foci free nuclei (DNA-PKi)” value is recorded as 33.92%.

As to “GAGAGCAGCGCAAGTGAGGAGG (listed as DNA, chemistry not fully specified) [SluD48]”, the “% of CUG foci free nuclei (DNA-PKi)” value came to 25.41%.

As for “GAGGGCCTTTTATTCGCGAGGG (guide RNA; chemistry not fully specified) [SluD97]”, the “% of CUG foci free nuclei (DNA-PKi)” value is 39.95%.

Take “GATAGGTGGGGGTGCGTGGAGG (guide RNA; chemistry not fully specified) [SluD21]”: the “% of CUG foci free nuclei (DNA-PKi)” value was determined as 32.15%.

For the substance “GATCACAGACCATTTCTTTCTT (guide RNA; chemistry not fully specified) [SluD01]”, the “% of CUG foci free nuclei (DNA-PKi)” value amounted to 17.29%.

Consider “GATGGAGGGCCTTTTATTCGCG (guide RNA; chemistry not fully specified) [SluD98]”, for which the “% of CUG foci free nuclei (DNA-PKi)” value was 11.71%.

Turning to “GCACTTTGCGAACCAACGATAG (guide RNA; chemistry not fully specified) [SluD28]”, the “% of CUG foci free nuclei (DNA-PKi)” value came to 31.88%.

With “GCCCAGCTCCAGTCCTGTGATC (guide RNA; chemistry not fully specified) [SluU28]”, the “% of CUG foci free nuclei (DNA-PKi)” value is reported as 36.78%.

As for “GCCCCAGCCGGCTCCGCCCGCT (guide RNA; chemistry not fully specified) [SluD55]”, the “% of CUG foci free nuclei (DNA-PKi)” value is 34.69%.

On to “GCCCCCTAGCggccggggaggg (guide RNA; as printed in the source, key not given here) [SluU42]”, for which the “% of CUG foci free nuclei (DNA-PKi)” value was determined as 42.7%.

Staying with this data set, now noted: single sgRNA; primary DM1 patient myoblasts; vehicle.
“GACAATAAATACCGAGGAATGT (guide RNA; chemistry not fully specified) [SluD81]”: the “% of CUG foci free nuclei (Vehicle)” value came out at 9.64%.

Consider “GACGCCCTGCTCTGGGGAGCGT (guide RNA; chemistry not fully specified) [SluD33]”, for which the “% of CUG foci free nuclei (Vehicle)” value came to 12.72%.

In the case of “GAGAGCAGCGCAAGTGAGGAGG (listed as DNA, chemistry not fully specified) [SluD48]”, the “% of CUG foci free nuclei (Vehicle)” value is given as 13.31%.

Regarding “GAGGGCCTTTTATTCGCGAGGG (guide RNA; chemistry not fully specified) [SluD97]”, the “% of CUG foci free nuclei (Vehicle)” value is 16.07%.

Take “GATAGGTGGGGGTGCGTGGAGG (guide RNA; chemistry not fully specified) [SluD21]”: the “% of CUG foci free nuclei (Vehicle)” value was determined as 9.96%.

As to “GATCACAGACCATTTCTTTCTT (guide RNA; chemistry not fully specified) [SluD01]”, the “% of CUG foci free nuclei (Vehicle)” value turned out to be 18.45%.

Turning to “GATGGAGGGCCTTTTATTCGCG (guide RNA; chemistry not fully specified) [SluD98]”, the “% of CUG foci free nuclei (Vehicle)” value came out at 11.21%.

For the substance “GCACTTTGCGAACCAACGATAG (guide RNA; chemistry not fully specified) [SluD28]”, the “% of CUG foci free nuclei (Vehicle)” value is 11.31%.

In the case of “GCCCAGCTCCAGTCCTGTGATC (guide RNA; chemistry not fully specified) [SluU28]”, the “% of CUG foci free nuclei (Vehicle)” value is 10.14%.

Take “GCCCCAGCCGGCTCCGCCCGCT (guide RNA; chemistry not fully specified) [SluD55]”: the “% of CUG foci free nuclei (Vehicle)” value is recorded as 15.71%.

On to “GCCCCCTAGCggccggggaggg (guide RNA; as printed in the source, key not given here) [SluU42]”, for which the “% of CUG foci free nuclei (Vehicle)” value was found to be 7.05%.

(Values after patent publication US20240173432A1, “Compositions and Methods for Treatment of Myotonic Dystrophy Type 1 with CRISPR/SluCas9” (Vertex Pharmaceuticals Incorporated, priority 2021, published 2024).)
